Here are results for 79 compounds from the OPERA property sets (Mansouri et al. 2018).

Where a SMILES comes first, the peptide text is derived from it. [ ]: non-standard residue; d: D form. Orn = NCCC[CH](N)C(=O)O

What is called logP is the decadic logarithm of the partition coefficient of the neutral form, usually between octanol and water. Higher therefore signals higher lipophilicity. Compound `CC1CC2C3CCC4=CC(=O)C=CC4(C)C3(F)C(O)CC2(C)C1(O)C(=O)NCCCl` (centres undefined) gave a logP of 2.73.
In the case of `Cc1ccccc1NN=C(C#N)C#N` it was 2.38; in that of `CN(C)N=Nc1ccc(C(F)(F)F)cc1`, 4.
In turn, `CC(C)CNC(=O)C1(O)C(C)CC2C3CCC4=CC(=O)C=CC4(C)C3(F)C(O)CC21C` (centres undefined) registered a logP of 3.01.
`C#CCOc1c(Cl)cc(NC=NOC)cc1Cl` yielded a logP of 3.3.
`CC(=NOCC(=O)O)c1cc(Oc2ccc(C(F)(F)F)cc2Cl)ccc1[N+](=O)[O-]` had a logP of 4.3.
Next, `NC1=NCC2c3ccccc3Cc3ccccc3N12` (centres undefined): 3.51.
The compound `Clc1ccc(Cl)c(-c2c(Cl)ccc(Cl)c2Cl)c1Cl` displayed a logP of 7.12.
Next, `CCOc1ccc(NC(=O)OCCN2CCOCC2)cc1`: 2.18; `Cc1[nH]cnc1CSCCNC1=NC(=O)CN1`: -0.5; `Oc1ccc(I)c2cccnc12`: 3.27.
In turn, `CC12CCC(=O)C=C1CC(C#N)C1C2CCC2(C)C1CCC21CCC(=O)O1` (centres undefined) displayed a logP of 1.67.
Next, `C#CCOc1c(Cl)cc(NC=NOCC=CCl)cc1Cl`: 3.9; `NC(Cc1cccc2ccccc12)C(=O)O` (centres undefined): -0.22; `CCN(CC)C(=O)N(C)SN(C)C(=O)ON=C(C)SC`: 3.2.
In the case of `CN(C)C=Nc1ccn(C2CC(O)C(CO)O2)c(=O)n1` (centres undefined) it was -1.54; in that of `CC(=O)c1ccc(O)c2ncccc12`, 1.8.
As to `CC(=O)Nc1c(I)c(C(=O)NC(CO)CO)c(I)c(C(=O)NC(CO)CO)c1I`, the logP was -2.27.
In the case of `Clc1ccc(Oc2nc(C(Cl)(Cl)Cl)nc(C(Cl)(Cl)Cl)n2)cc1` it was 5.67.
In the case of `CCCN(C=Nc1ccn(C2OC(CO)C(O)C2O)c(=O)n1)CCC` (centres undefined) it was 0.24.
Next, `CCNc1nc(SC)nc(C(Cl)(Cl)Cl)n1`: 3.87; `O=[N+]([O-])c1ccc2c(O)cccc2c1`: 3.5.
On to `CC1(C)CCC(C)(C)N1[O]`, for which the logP was found to be 1.
Next, `CCOC(=O)C(CC)C(CO)Cc1cncn1C` (centres undefined): 0.73; `CC(O)CNC(=O)C(F)(F)Cn1cnc([N+](=O)[O-])n1` (centres undefined): -0.47.
Next, `O=c1nc(N=CN2CCCC2)ccn1C1CC(O)C(CO)O1` (centres undefined): -1.02; `CCCCNC(=O)C1(O)C(C)CC2C3CCC4=CC(=O)C=CC4(C)C3(F)C(O)CC21C` (centres undefined): 3.1; `Clc1cc2c(c(Cl)c1Cl)Oc1ccc(Cl)c(Cl)c1O2`: 6.74.
Compound `CC(C)CN1C(=O)C(=O)c2ccccc2C1=O` yielded a logP of 2.08.
The compound `CCOCCN(CCOCC)CC(O)c1cc(-c2ccc(Cl)c(Cl)c2)nc2ccccc12` (centres undefined) had a logP of 5.76.
Next, `CCOC(=O)C(C)Oc1ccc(Oc2cnc3ccccc3n2)cc1` (centres undefined): 3.47; `CCC1(CCC(C)C)C(=O)NC(=O)N(C)C1=O` (centres undefined): 2.45; `CCC(=O)c1ccc2c(c1)N(CC(C)N(C)C)c1ccccc1S2` (centres undefined): 4.79.
Next, `CC1(C)CCCC(C)(C)N1[O]`: 1.85; `CCCCCc1cc(OCc2ccc(-c3ccccc3)cc2)c2c(c1)OC(C)(C)C1CC=C(C)CC21` (centres undefined): 10.9.
Next, `CC(O)COc1ccccc1` (centres undefined): 1.61; `CCCCOC(=O)n1cc(F)c(=O)[nH]c1=O`: 0.89; `Cc1ncc([N+](=O)[O-])n1CCc1ccncc1`: 0.06.
`Cc1c(Cl)cccc1Cl` registered a logP of 3.99.
In the case of `Clc1ccc(-c2ccccc2)c(Cl)c1Cl` it was 5.86; in that of `O=C(O)c1ccc([N+](=O)[O-])c(O)c1`, 1.98.
Next, `CCN1C(=O)C(=O)c2c(C(N)=O)cccc2C1=O`: -0.5.
In the case of `CC(=O)NC(CCCN)C(=O)NC(Cc1ccccc1)C(=O)NC(CC(C)C)C(N)=O` (stereo not drawn) (Ac-[Orn]-Phe-Leu-NH2; configuration not given here) it was 0.54; in that of `CCCn1c(=O)c2[nH]c(-c3ccc(Cl)cc3N)nc2n(CCC)c1=O`, 4.02; in that of `CSC(=NOC(=O)N(C)COC1OC(C(=O)O)C(O)C(O)C1O)C(=O)N(C)C` (centres undefined), -2.52.
Compound `Cc1cccc(C)c1NC(=O)CN1CCN(CCCC(c2ccc(F)cc2)c2ccc(F)cc2)CC1` showed a logP of 5.6.
Next, `CCCCCCCOc1cccc(NC(=O)OCCN2CCOCC2)c1`: 5.28; `Cc1cc(OCCN(C)C)c(C(C)C)cc1OS(=O)(=O)C12CCC(CC1=O)C2(C)C` (centres undefined): 4.37.
The compound `CC1CC(C(=O)O)=C(C(=O)O)C(C)C1` (centres undefined) showed a logP of 1.53.
Next, `C=CCn1cccn1`: 0.35.
In the case of `CCCCN1C(=O)NC(=O)C(=O)C1=O` it was 0.81; in that of `CCN1C(=O)C(=O)c2ccc(OC)cc2C1=O`, 1.49.
Next, `CCC(=O)C(CS(=O)(=O)c1ccc(C)cc1)c1ccc(OC)cc1` (centres undefined): 2.47; `Cn1ccc(=O)c2ccccc21`: 0.44; `NS(=O)(=O)c1ccc2ccccc2c1`: 1.55.
In turn, `C[Si](C)(C)C` yielded a logP of 3.24.
Consider `Cc1cc(Cl)c(Cl)cc1Cl`, for which the logP was found to be 4.56.
In the case of `CSC(SC)=C(C(=O)OC(C)C)C(=O)OC(C)C` it was 3.38.
Next, `c1ccc(SCc2ccccc2CCCN2CCOCC2)cc1`: 3.8; `Cc1n[nH]c(C(=O)NC2CCCC2)c1[N+](=O)[O-]`: 1.24.
On to `Cc1nc([N+](=O)[O-])cn1C`, for which the logP was -0.24.
Next, `CC1=CCC2C(C1)c1c(O)cc(NS(C)(=O)=O)cc1OC2(C)C` (centres undefined): 3.12; `CCC(C)N1C(=O)C(=O)c2ccccc2C1=O` (centres undefined): 2.15; `C=C1C(=O)OC2CC(C)C3C=CC(=O)C3(C)C(OC(=O)CCCC(=O)OC3C4C(=C)C(=O)OC4CC(C)C4C=CC(=O)C43C)C12` (centres undefined): 1.37.
In the case of `O=C(Cc1ccccc1)NCCNCC(O)COCc1ccccc1` (centres undefined) it was 1.45; in that of `CCC(C)NC(=O)C(=Cc1ccccc1)c1ccccc1` (centres undefined), 4.05.
Next, `CCCCOC(=O)c1cnc2n(c1=O)C(C)CCC2` (centres undefined): 1.77; `CC(=O)NC(CC(C)C)C(=O)NC(CCCN)C(=O)NC(Cc1ccccc1)C(N)=O` (centres undefined) (Ac-Leu-[Orn]-Phe-NH2; configuration not given here): 0.53.
`CC1CN(c2cc3c(cc2F)c(=O)c(C(=O)O)cn3-c2ccc(F)cc2F)CCN1` (centres undefined): the logP is -0.2.
Next, `C#CCON=CNc1cc(Cl)c(OCC#C)c(Cl)c1`: 3.3; `N#CCc1ccc(O)c2ncccc12`: 1.81; `O=[N+]([O-])c1ccc2ccc3cccc4ccc1c2c34`: 5.06.
Next, `Cn1c([N+](=O)[O-])cnc1C(N)=O`: 0.29; `S=C=NCCCc1ccccc1`: 3.8.
The compound `C(=C\c1ccccc1)/CN1CCN(C(c2ccccc2)c2ccccc2)CC1` yielded a logP of 5.77.
In the case of `COc1cc(Cc2cnc(N)nc2N)cc(Br)c1OC` it was 2.23; in that of `CN(CO)c1nc(N(C)CO)nc(N(C)CO)n1`, 0.4; in that of `O=C(NC(CO)C(O)c1ccc(-c2ccccn2)cc1)C(F)(F)F` (centres undefined), 1.31.
In the case of `Cc1ccccc1CO[C@H]1C[C@]2(C(C)C)CC[C@@]1(C)O2` (single isomer, unassigned) it was 4.62.
